“Also recorded” adds a separate entry of the source.
System: BV-173 cells
Test: Western blot analysis in BV-173 cells
Type: cell-based, human
Protocol: BV-173 cells (BCR-ABL positive leukemic cells) were used as control cells left (Ctl) or with 1 μM MARB1, 2 μM MARB2 or 2 mM VPA treated for 24 h. These concentrations were chosen to achieve equipotent effects on cells which was in preliminary tests (data not shown). Shown are acetylated tubulin-α, α-tubulin, acetylated histone H3, WT1, survivin and β-actin. The total amount of α-tubulin and β-actin were used as loading control. Mr, relative molecular weight in kilodaltons. The degradation of WT1 in patients treated with VPA cells bases on a loss of WT1 mRNA and the increased degradation of WT1 protein by induction of the E2 ubiquitin conjugase UbcH8.
Flow cytometric analysis of the induction of (A) apoptotic DNA fragmentation and (B) Cell cycle analysis of BV 173 cells. The cells were kept as control cells (Ctl), treated with 1 μM or 2 μM MARB1 MARB2 and 0.2 or 0.5 μM imatinib for 48 h. The data was received by two independent experiments. The individual compounds show only slight effects in the used concentrations; whereas their combination can effectively kill leukemic cells. (C) Western blot analysis on data from the BCR-ABL, acetylated tubulin and α-sliced PARP1; the total amount of tubulin-α serves as a loading control. BV-173 cells were treated for 24 h with 1 μM, or 2 μM MARB1 or MARB2.
Human leukemia cell lines BV 173 and K562 with BCR-ABL mutation (Leibniz Institute DSMZ—German Collection of Microorganisms and Cell Cultures, DSMZ Accession Nos: ACC-20 and ACC-10).
The assay is carried out as described in Buchwald et al. 2010 and Buchwald et al. 2013. Briefly, cells were collected and lysed in NET-N buffer (150 mM NaCl, 1 mM EDTA, 50 mM Tris-HCl (pH 7.8), 0.5% Nonidet P-40 (NP-40), 1 mM phenylmethylsulfonyl fluoride, 0.5 mg/ml leupeptin and 0.5 mg/ml pepstatin) followed by mild sonification on ice. Protein lysate ([…]) was boiled in Laemmli buffer and separated on SDS-polyacrylamide gel electrophoresis for western blotting with specific antibodies. All lysates were assessed by Bradford assay for protein concentrations.

[1] = BV-173, 1 μM MARB1, 2 μM MARB2, 24 h

Q: For `CN1C(=O)C2CN(Cc3c2c2ccccc2n3Cc2ccc(C(=O)NO)cc2)C1=O` (centres unmarked) [MARB1, N-Hydroxy-4-((4-methyl-3,5-dioxo-3,4,5,6-tetrahydro-2,6-methano[1,3]diazocino[5,6-b]indol-11(1H)-yl)methyl)benzamide], which “acetylation of tubulin-α” value [1] is on record?
A: hyperacetylation of tubulin-α

Q: And the expression of survivin [1]?
A: reduction of the expression of survivin

Q: What about the “acetylation of histone H3” value (BV-173, 1 μM MARB1, 2 μM MARB2 or 2 mM VPA, 24 h) of the same molecule?
A: Neither MARB1, nor MARB2 cause these alterations

Q: And the “BCR-ABL expression on the protein level” value (BV-173, compound alone, 24 h)?
A: do not affect

Q: What about the “BCR-ABL stabilization/degradation in combination with imatinib” value (BV-173, with imatinib, 24 h) of the same molecule?
A: significantly inhibit the unwanted stabilization of BCR-ABL; also recorded: significant degradation of BCR-ABL

— patent US10106540B2, “HDAC6 inhibitors and their uses” (Universität Regensburg, priority 2014, dated 2018)
